Test results published in PubChem BioAssay AID1188 (EPA DSSTox, 2008).
The source made the active and inactive calls.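 The calls were made as follows: active = a concentration killing half the fathead minnows in the acute test was determined; inconclusive = some fish died but not half at top dose; inactive = no fish died even at top dose.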

Tested on: Fathead minnow (Pimephales promelas) acute toxicity, lethality
Assay: DSSTox (EPAFHM) EPA Fathead Minnow Acute Toxicity
Excerpt: The EPA Fathead Minnow Acute Toxicity database was generated by the U.S. EPA Mid-Continental Ecology Division (MED) for the purpose of developing an expert system to predict acute toxicity from chemical structure based on mode of action considerations. […] A second valuable aspect of this database, from a QSAR modeling perspective, is the inclusion of general mode-of-action (MOA) classifications of acute toxicity response for individual chemicals derived from study results. MOA assignments are biologically based classifications, allowing definition of chemical similarity based upon biological activity instead of organic chemistry functional class as most commonly employed in QSAR study. MOA classifications should strengthen the scientific basis for construction of individual QSARs. However, it is cautioned that the broad MOA categorizations should not be construed to represent a single molecular mechanism; for example, CNS seizure agents and respiratory inhibitors are known to act through a variety of receptors. The EPA Fathead Minnow database and results have been used by EPA MED to build components of the ASTER prediction system, which incorporates MOA-based QSARs for the prediction of aquatic toxicity of environmental and industrial chemicals. Briefly, MOA classifications for individual chemicals, derived from experiments and provided in the EPA Fathead Minnow database, were used to derive substructural rules for assigning a new chemical to an MOA category based solely on chemical structure. Once a new chemical is assigned to an MOA category on this basis, the logP-based QSAR for that MOA category is applied.
The DSSTox EPAFHM database (available from the DSSTox Source URL) includes information pertaining to organic chemical class assignments (ChemClass_FHM), acute toxicity in fathead minnow (LC50_mg), dose-response assessments (LC50_Ratio, ExcessToxicityIndex), behavioral assessments (FishBehaviorTest), joint toxicity MOA evaluations of mixtures (MOA_MixtureTest), and additional MOA evaluation of fish acute toxicity syndrome (FishAcuteToxSyndrome) in rainbow trout. All of these indicators, to the extent available, were considered in the determination of MOA and, additionally, were used to determine a level of confidence in the MOA assignment for each chemical (MOA_Confidence). […] Activity Score is mapping of LOG10 (1/LC50_mmol) activity values spanning activity range [MIN, MAX] onto Integer 1-100 Activity range, where 100 is highest potency and 1 is lowest. If Activity Outcome is "active": Activity Score = 100 * INTEGER[(log10(1/ LC50_mmol) - MIN)/([…])].

Row | Structure (SMILES) | Potency [µM] | outcome
1 | CC12CCC(CC1)C(C)(C)O2 | 661 | 
2 | CC(=O)c1ccc(Cl)c(Cl)c1Cl | 8.95 | 
3 | C=CCNc1ccccc1 | 270 | 
4 | CNC(=O)Oc1cccc2ccccc12 | 43.5 | 
5 | C#CC(O)CCCCC (stereo unspecified) | 3.27 | 
6 | CC(C)(C)c1cc(C(C)(C)C)c(O)c(C(C)(C)C)c1 | 0.232 | 
7 | CCCCCCOc1ccc(N)cc1 | 15.6 | 
8 | C=CCCCCCCC=C | 2.1 | 
9 | CCC(C)O (stereo unspecified) | 49500 | 
10 | Cl[C@@H]1CCCC[C@H]1Cl | 120 | 
11 | CCCC(C)C1(CC)C(=O)N=C(O)NC1=O (stereo unspecified) | 199 | 
12 | c1ccc(CN2CCNCC2)cc1 | 269 | 
13 | ClCCN1CCCC1 | 900 | 
14 | CCN(CCO)c1cccc(C)c1 | 295 | 
15 | C#CC(O)(c1ccccc1)c1ccccc1 | 53.3 | 
16 | O=Cc1c(F)cccc1Cl | 59.3 | 
17 | C[CH2][Sn]([CH2]C)([CH2]C)[CH2]C | 0.0468 | 
18 | CCCBr | 547 | 
19 | CCOP(=O)(OCC)SCCSCC | 61.9 | 
20 | CCCCCCCCCCCCCC=O |  | inactive; moa not determined either due to lack of toxicity at saturation or late test res
21 | CCCCCCCCC(=O)O | 657 | 
22 | ClCc1ccc(CCl)cc1 | 0.223 | 
23 | O=[N+]([O-])c1c(Cl)cc(Cl)c([N+](=O)[O-])c1Cl | 0.818 | 
24 | CCCSSCCC | 17 | 
25 | CCCC=O | 204 | 

Row | Structure (SMILES) | Potency [µM] | outcome
26 | O=c1ccc(Cl)c[nH]1 | 8800 | 
27 | CC(=O)C(C)CN(C)C (stereo unspecified) | 65.8 | 
28 | c1ccoc1 | 896 | 
29 | O=[N+]([O-])c1ccccc1Oc1ccc(Cl)cc1 | 7.69 | 
30 | CCCCCCCN | 189 | 
31 | CCOC(=O)N(C(=O)OCC)C(=O)OCC | 57 | 
32 | CCCSCCSCCC | 42.2 | 
33 | C=Cc1ccc(C(C)(C)C)cc1 | 3.06 | 
34 | Cc1ncc[nH]1 | 3480 | 
35 | CCC(C)c1cc([N+](=O)[O-])cc([N+](=O)[O-])c1O (stereo unspecified) | 2.23 | 
36 | Cc1ccc(C)cc1 | 83.5 | 
37 | O=C(Oc1ccccc1)c1ccccc1O | 5.51 | 
38 | C/C=C/C=C/C | 243 | 
39 | CC(C)OC(C)C | 7690 | 
40 | CCCCCCCCCCc1ccc(N)cc1 | 0.266 | 
41 | C1C2CC3CC1CC(C2)C3 | 2.06 | 
42 | Cc1nc(C)c(C)o1 | 4040 | 
43 | CCCc1ccc(O)cc1 | 80.8 | 
44 | Cc1ccccn1 | 9630 | 
45 | CC(C)C1=CC2=CC[C@@H]3[C@](C)(CCC[C@@]3(C)C(=O)O)[C@H]2CC1 | 7.87 | 
46 | NC(=O)c1cccc(Br)c1 | 463 | 
47 | CCOc1ccc(C=O)cc1 | 187 | 
48 | Cc1ccc(S(=O)(=O)n2ccnc2)cc1 | 188 | 
49 | CCOC(=O)CC(SP(=S)(OC)OC)C(=O)OCC (stereo unspecified) | 42.7 | 
50 | CCOP(=S)(OCC)Oc1cc(C)nc(C(C)C)n1 | 30.7 | 

Row | Structure (SMILES) | Potency [µM] | outcome
51 | CCNCc1ccccc1 | 422 | 
52 | C=Cc1cccc(CCl)c1 | 2.03 | 
53 | N#Cc1ccccc1C(F)(F)F | 247 | 
54 | c1cc2c3c(cccc3c1)CC2 | 11.2 | 
55 | Cc1cocn1 | 16700 | 
56 | CC(C)(C)c1ccc(C(N)=O)cc1 | 180 | 
57 | Nc1ccc(F)cc1 | 152 | 
58 | CCN(CC)CCCC(C)=O | 2140 | 
59 | CCOC(=O)c1ccc(N)cc1 | 216 | 
60 | CCCCCCCCCO | 39.5 | 
61 | CCCCOC(=O)CCCCC(=O)OCCCC | 14.1 | 
62 | CN(C)c1ccc(/C=C/C=O)cc1 | 36.7 | 
63 | C1OCOCO1 | 66100 | 
64 | O=C(c1ccc(Br)cc1)c1cccnc1 | 77.8 | 
65 | O=Cc1cc(O)ccc1[N+](=O)[O-] | 251 | 
66 | O=[N+]([O-])c1cc([N+](=O)[O-])c2ccccc2c1O | 14.5 | 
67 | Cc1ccc(Cl)c(Cl)c1 | 18.1 | 
68 | CCc1c(Br)c(Br)c(Br)c(Br)c1Br |  | inactive; moa not determined either due to lack of toxicity at saturation or late test res
69 | O=c1cc(-c2ccccc2)oc2ccccc12 | 15.7 | 
70 | CC/C=C\CCO | 3800 | 
71 | CCCCC(CC)COC(=O)c1ccccc1C(=O)OCC(CC)CCCC (stereo unspecified) |  | inactive; moa not determined either due to lack of toxicity at saturation or late test res
72 | COC(=O)c1ccc(Cl)cc1 | 64 | 
73 | C=C[C@@]1(C)CC[C@H]2C(=CC[C@@H]3[C@]2(C)CCC[C@@]3(C)C(=O)O)C1 | 2.88 | 
74 | C1N2CN3CN1CN(C2)C3 | 355000 | 
75 | c1ccc(N(c2ccccc2)c2ccccc2)cc1 |  | inactive; moa not determined either due to lack of toxicity at saturation or late test res

Row | Structure (SMILES) | Potency [µM] | outcome
76 | CNC(=O)O/N=C(\C)SC | 13 | 
77 | O=Cc1ccc([N+](=O)[O-])cc1 | 66.8 | 
78 | Cc1cccc(Cl)n1 | 1820 | 
79 | O=C1C[C@@H]2OCC=C3CN4CC[C@]56c7ccccc7N1[C@H]5[C@H]2[C@H]3C[C@H]46 | 1.11 | 
80 | CC/C(C)=N/O | 9680 | 
81 | O=S(c1ccc(Cl)cc1)c1ccc(Cl)cc1 |  | inactive; moa not determined either due to lack of toxicity at saturation or late test res
82 | Nc1ccc([N+](=O)[O-])cc1 | 905 | 
83 | Oc1c(Cl)c(Cl)c(Cl)c(Cl)c1Cl | 0.912 | 
84 | C=C(C)[C@H]1Cc2c(ccc3c2O[C@@H]2COc4cc(OC)c(OC)cc4[C@@H]2C3=O)O1 | 0.0132 | 
85 | O=Cc1cc(Br)cc(Br)c1O | 3.04 | 
86 | CCOCCOC(C)=O | 319 | 
87 | O=Cc1cc(Br)ccc1O | 6.46 | 
88 | CC1=CC(=O)c2ccccc2C1=O | 0.639 | 
89 | O=C1C2CC3CC(C2)CC1C3 | 405 | 
90 | CCCN(CCC)CCC | 355 | 
91 | CCCCOC(C)=O | 155 | 
92 | c1ccc(Oc2ccccc2)cc1 | 23.5 | 
93 | C=CC=O | 0.303 | 
94 | C=CC(O)CCC (stereo unspecified) | 304 | 
95 | NCCc1ccccn1 |  | inactive; moa not determined either due to lack of toxicity at saturation or late test res
96 | CCCCCCCCCCCC(C)=O | 1.81 | 
97 | CC(C)C(O)C(C)C | 1400 | 
98 | CCOC(=O)C(Cc1ccccc1)C(=O)OCC | 21.7 | 
99 | CCO | 319000 | 
100 | COc1cc(C=O)cc(Br)c1O | 258 | 

Row | Structure (SMILES) | Potency [µM] | outcome
101 | ClCCCl | 1370 | 
102 | c1ccc2c(c1)oc1ccccc12 | 8.92 | 
103 | O=[N+]([O-])c1ccc(O)c([N+](=O)[O-])c1 | 59.2 | 
104 | CC(=O)c1ccncc1 | 1390 | 
105 | C=CCOC(=O)C(=C)C | 7.85 | 
106 | Nc1ccc(Cl)cc1 | 246 | 
107 | CCc1cccc(CC)c1 | 30.9 | 
108 | CNC(=O)Oc1ccc(C(C)(C)C)cc1 | 48.2 | 
109 | C=CC(=O)OC1CCCCC1 | 9.6 | 
110 | O=[N+]([O-])c1ccc(F)cc1 | 201 | 
111 | OC(c1ccc(Cl)cc1)(c1ccc(Cl)cc1)C(Cl)(Cl)Cl | 1.67 | 
112 | CC(C)(O)C(Cl)(Cl)Cl | 362 | 
113 | C=C(C)C(=O)OCCO | 1740 | 
114 | Cc1ccc(SSc2ccc(C)cc2)cc1 |  | inactive; moa not determined either due to lack of toxicity at saturation or late test res
115 | CC(C)(O)CCc1ccccc1 | 404 | 
116 | CC(C)(C)c1ccc(Oc2cccc(C=O)c2)cc1 | 1.45 | 
117 | O=Cc1cccnc1 | 153 | 
118 | CC(N)CN (stereo unspecified) | 13600 | 
119 | C=CC(=O)OCCCCCCCCCCCC |  | inactive; moa not determined either due to lack of toxicity at saturation or late test res
120 | Cc1ccc(N(C)C)cc1 | 362 | 
121 | ClC(Cl)(Cl)C(Cl)(Cl)Cl | 6 | 
